Series [1] in a line: Human liver microsome stability assay (Biological Example 8b). As to conditions: liver microsomes, pH 7.4. In general terms: Microsomes from liver hold many membrane-bound enzymes, among them those of drug oxidation.
Protocol: The reaction was started with addition of excess NADPH (5 mg/mL, 15 μL in 0.1 M potassium phosphate buffer, 1.0 mM EDTA, pH 7.4), the total volume is 45 μL (compound final concentration was 1 μM). […] 50 μL of the supernatant was transferred from each well into a 96-well sample plate containing 50 μL of ultra-pure water (Millipore) for LC-MS/MS analysis.
In series [2] the target is T1, CYP17 (human testicular microsome) (Homo sapiens, UniProt P05093).
T1 construct: using microsomal fraction from human testis (Celsis Cat #S00110) as the enzyme source; tissue Celsis S00110; host or cells: human testis microsomal fraction
T1 sequence (P05093 1-508): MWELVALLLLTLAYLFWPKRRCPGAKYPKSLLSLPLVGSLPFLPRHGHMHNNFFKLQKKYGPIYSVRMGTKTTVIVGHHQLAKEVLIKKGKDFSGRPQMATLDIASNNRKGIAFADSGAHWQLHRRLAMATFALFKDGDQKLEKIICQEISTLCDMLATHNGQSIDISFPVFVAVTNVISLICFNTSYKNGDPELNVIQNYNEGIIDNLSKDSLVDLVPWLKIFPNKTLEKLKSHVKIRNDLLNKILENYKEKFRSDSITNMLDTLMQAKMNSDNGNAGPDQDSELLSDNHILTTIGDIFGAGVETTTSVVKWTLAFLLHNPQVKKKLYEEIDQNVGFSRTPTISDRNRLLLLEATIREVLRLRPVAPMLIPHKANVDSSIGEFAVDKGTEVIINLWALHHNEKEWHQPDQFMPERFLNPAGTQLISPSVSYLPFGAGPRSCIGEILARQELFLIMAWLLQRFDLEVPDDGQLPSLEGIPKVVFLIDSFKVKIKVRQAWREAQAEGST
The series can be described thus: CYP17 enzymatic assay (IC50) (Biological Example 4). It counts as biochemical.

The target in series [3] is T1, CYP17 (human testicular microsome). The series can be described thus: CYP17 enzymatic assay (% inhibition at 10 nM), version 1 (Biological Example 5). It counts as biochemical.
The target is the same in series [4]. The series can be described thus: CYP17 enzymatic assay (% inhibition at 1 nM) (Biological Example 12). It counts as biochemical. As to conditions: compound at 1 nM.
The mark [5] stands for this setting: human testicular microsome, read-out: Biological Example No. 4: CYP17 enzymatic assay IC50.
Setting [6] is: 10 nM compound, DHEA by ELISA, read-out: Biological Example No. 5: CYP17 percent inhibition at 10 nM (version 1).
The mark [7] stands for this setting: human testicular microsome, DHEA by ELISA, read-out: Biological Example No. 4: CYP17 enzymatic assay IC50.
[8] abbreviates: human testicular microsome, read-out: CYP17 enzymatic assay IC50 (Biological Example No. 4).
[9] abbreviates: read-out: CYP17 enzymatic assay % inhibition at 1 nM (Biological Example No. 12).
Where [10] appears, read: compound at 10 nM, read-out: CYP17 enzymatic assay % inhibition at 10 nM (Biological Example No. 5).
Setting [11] is: read-out: Biological Example No. 12: CYP17 enzymatic assay % inhibition at 1 nM.

Where two headings read alike, the source gives them in different places. Some results are limits rather than exact numbers.

As usually defined, the half-life is the time needed for the level to fall by half in the phase considered. The low end stands for rapid decline, the high end for slow decline. As usually defined, the IC50 is the concentration that gives 50% inhibition. What is called inhibition is the change of the read-out against control, counted positive when it falls.

Take `C[C@]12CC[C@H](O)CC1=CC[C@@H]1[C@@H]2CC[C@]2(C)C(c3cnccc3F)=CC[C@@H]12` [Cmpd 285]: the half-life at 1 μM in series [1] was 1 to 50 min. Moreover, the IC50 in series [2] (setting [5]) was below 11 nM.
Turning to `COc1cncc(C2=CC=C3[C@@H]4CC=C5C[C@@H](OC(C)=O)CC[C@]5(C)[C@H]4CC[C@]23C)c1` [Compound 80, (3S,10R,13S)-17-(5-methoxypyridin-3-yl)-10,13-dimethyl-2,3,4,7,8,9,10,11,12,13-decahydro-1H-cyclopenta[a]phenanthren-3-yl acetate], in series [3] (setting [6]), the inhibition at 0.01 µM is above 80%. Also, the half-inhibitory concentration (IC50) in series [2] (setting [7]) was below 11 nM.
For `Cc1cncc(C2=CC[C@H]3[C@@H]4CC[C@H]5CCOCC[C@]5(C)[C@H]4CC[C@]23C)c1` [Compound 126, 3-((5aS,5bS,7aS,10aS,10bR,12aS)-5a,7a-dimethyl-2,4,5,5a,5b,6,7,7a,10,10a,10b,11,12,12a-tetradecahydro-1H-cyclopenta[5,6]naphtho[1,2-d]oxepin-8-yl)-5-methylpyridine], in that order: 50 to 80% and below 11 nM.
As for `CC(=O)O[C@H]1CC[C@@]2(C)[C@@H](CC[C@H]3C4=CC=C(n5ccnc5)[C@@]4(C)CC[C@@H]32)C1` [Compound 169, (5S,8R,9S,10S,13S)-17-(1H-imidazol-1-yl)-10,13-dimethyl-2,3,4,5,6,7,8,9,10,11,12,13-dodecahydro-1H-cyclopenta[a]phenanthren-3-yl acetate], the inhibition at 0.01 µM in series [3] (setting [6]) was above 80%. In series [2] (setting [7]), the IC50 is below 11 nM.
With `C[C@]12CCC3C(CC=C4C[C@H](O)CC[C@@]43C)C1=CC=C2c1cccnc1` (stereo partly drawn) [Compound 199, (3R,10R,13S)-10,13-dimethyl-17-(pyridin-3-yl)-2,3,4,7,8,9,10,11,12,13-decahydro-1H-cyclopenta[a]phenanthren-3-ol], in series [1], the half-life at 1 μM fell in the range of 1 to 50 min. Also, the IC50 in series [2] (setting [8]) was below 11 nM. Further, in series [4] (setting [9]), the inhibition at 0.001 µM is above 50%.
On the same counts, the results for `C[C@]12CCC3C(CC(O)C45CC4CC[C@]35C)C1=CC=C2c1cccnc1` (stereo partly drawn) [Compound 200, (3aR,5aS)-3a,5a-dimethyl-6-(pyridin-3-yl)-1,1a,2,3,3a,3b,4,5,5a,8b,9,10-dodecahydrocyclopenta[a]cyclopropa[2,3]cyclopenta[1,2-f]naphthalen-10-ol] are 1 to 50 min, below 11 nM and above 50%.
In series [1], `CC(=O)N[C@@H]1CC[C@@]2(C)C(CCC3C2CC[C@]2(C)C(c4cccnc4)=CCC32)C1` (stereo partly drawn) [Compound 215, N-((3R,10S,13S)-10,13-dimethyl-17-(pyridin-3-yl)-2,3,4,5,6,7,8,9,10,11,12,13,14,15-tetradecahydro-1H-cyclopenta[a]phenanthren-3-yl)acetamide] yielded a half-life at 1 μM of 1 to 50 min. In addition, the IC50 in series [2] (setting [8]) is below 11 nM. Moreover, the inhibition at 0.001 µM in series [4] (setting [9]) is above 50%.
On the same counts, the results for `C[C@]12CC[C@@H](NC(=O)C3CC3)CC1CCC1C2CC[C@]2(C)C(c3cccnc3)=CCC12` (stereo partly drawn) [Compound 220, N-((3R,10S,13S)-10,13-dimethyl-17-(pyridin-3-yl)-2,3,4,5,6,7,8,9,10,11,12,13,14,15-tetradecahydro-1H-cyclopenta[a]phenanthren-3-yl)cyclopropanecarboxamide] are 1 to 50 min, below 11 nM and above 50%.
On the same counts, the results for `C[C@]12CC[C@@H](NC(=O)C3CC3)CC1=CCC1C2CC[C@]2(C)C(c3cccnc3)=CCC12` (stereo partly drawn) [Compound 224, N-((3R,10R,13S)-10,13-dimethyl-17-(pyridin-3-yl)-2,3,4,7,8,9,10,11,12,13,14,15-dodecahydro-1H-cyclopenta[a]phenanthren-3-yl)cyclopropanecarboxamide] are 1 to 50 min, below 11 nM and above 50%.
Consider `COc1cncc(C2=CC[C@H]3[C@@H]4CC=C5C[C@H](NC(=O)C6CC6)CC[C@]5(C)[C@H]4CC[C@]23C)c1` [Compound 230, N-((3R,10R,13S)-17-(5-methoxypyridin-3-yl)-10,13-dimethyl-2,3,4,7,8,9,10,11,12,13,14,15-dodecahydro-1H-cyclopenta[a]phenanthren-3-yl)cyclopropanecarboxamide], for which, in series [1], the half-life at 1 μM lay in the range of 1 to 50 min. In series [2] (setting [8]), the IC50 is below 11 nM. Moreover, the inhibition at 0.001 µM in series [4] (setting [9]) was above 50%.
On the same counts, the results for `CCCC(=O)N[C@@H]1CC[C@@]2(C)C(=CC[C@@H]3[C@@H]2CC[C@]2(C)C(c4cccnc4)=CC[C@@H]32)C1` [Compound 235, N-((3R,10R,13S)-10,13-dimethyl-17-(pyridin-3-yl)-2,3,4,7,8,9,10,11,12,13,14,15-dodecahydro-1H-cyclopenta[a]phenanthren-3-yl)butyramide] are 1 to 50 min, below 11 nM and above 50%.
In the case of `COC1C[C@H]2[C@@H]3CC=C(n4ccnc4)[C@@]3(C)CC[C@@H]2[C@@]2(C)CCC3CC312` (stereo partly drawn) [Compound 236, 1-((3aR,5aS)-10-methoxy-3a,5a-dimethyl-1,1a,2,3,3a,3b,4,5,5a,8,8a,8b,9,10-tetradecahydrocyclopenta[a]cyclopropa[2,3]cyclopenta[1,2-f]naphthalen-6-yl)-1H-imidazole], the inhibition at 0.01 µM in series [3] (setting [10]) is above 80%. Besides, the IC50 in series [2] (setting [8]) is below 11 nM. Also, the inhibition at 0.001 µM in series [4] (setting [9]) lay within 10 to 50%.
`C[C@]12CCC(NC(=O)C3CCC3)CC1=CCC1C2CC[C@]2(C)C(n3ccnc3)=CCC12` (stereo partly drawn) [Compound 240, N-((10R,13S)-17-(1H-imidazol-1-yl)-10,13-dimethyl-2,3,4,7,8,9,10,11,12,13,14,15-dodecahydro-1H-cyclopenta[a]phenanthren-3-yl)cyclobutanecarboxamide] gave a half-life at 1 μM in series [1] of 1 to 50 min. Moreover, in series [2] (setting [8]), the IC50 was below 11 nM. Also, the inhibition at 0.001 µM in series [4] (setting [9]) is above 50%.
`C[C@]1(O)CC[C@@]2(C)C(CCC3C2CC[C@]2(C)C(c4cccnc4)=CCC32)C1` (stereo partly drawn) [Compound 254, (3S,10S,13S)-3,10,13-trimethyl-17-(pyridin-3-yl)-2,3,4,5,6,7,8,9,10,11,12,13,14,15-tetradecahydro-1H-cyclopenta[a]phenanthren-3-ol]: in series [1], the half-life at 1 μM is 1 to 50 min. In series [2], the IC50 was below 11 nM. Further, in series [4] (setting [9]), the inhibition at 0.001 µM was above 50%.
On the same counts, the results for `C[C@]1(O)CC[C@@]2(C)C(CCC3C4=CC=C(c5cccnc5)[C@@]4(C)CCC32)C1` (stereo partly drawn) [Compound 259, (3S,10S,13S)-3,10,13-trimethyl-17-(pyridin-3-yl)-2,3,4,5,6,7,8,9,10,11,12,13-dodecahydro-1H-cyclopenta[a]phenanthren-3-ol] are 1 to 50 min, below 11 nM and 10 to 50%.
Consider `C[C@]12CC[C@H](O)CC1=CCC1C2CC[C@]2(C)C(c3cncc(F)c3)=CCC12` (stereo partly drawn) [Compound 274, (3S,10R,13S)-17-(5-fluoropyridin-3-yl)-10,13-dimethyl-2,3,4,7,8,9,10,11,12,13,14,15-dodecahydro-1H-cyclopenta[a]phenanthren-3-ol], for which the half-life at 1 μM in series [1] was above 50 min. Also, in series [2] (setting [5]), the IC50 is below 11 nM. Moreover, the inhibition at 0.001 µM in series [4] (setting [11]) was above 50%.
Take `C[C@]12CC[C@H](O)CC1=CCC1C2CC[C@]2(C)C(c3ccc(F)nc3)=CCC12` (stereo partly drawn) [Compound 276, (3S,10R,13S)-17-(6-fluoropyridin-3-yl)-10,13-dimethyl-2,3,4,7,8,9,10,11,12,13,14,15-dodecahydro-1H-cyclopenta[a]phenanthren-3-ol]: in series [1], the half-life at 1 μM was in the range of 1 to 50 min. Besides, in series [2] (setting [5]), the IC50 was above 25 nM. Moreover, in series [4] (setting [11]), the inhibition at 0.001 µM is 10 to 50%.
For `C[C@]12CC[C@H](O)CC1=CCC1C2CC[C@]2(C)C(c3cncc(Cl)c3)=CCC12` (stereo partly drawn) [Compound 280, (3S,10R,13S)-17-(5-chloropyridin-3-yl)-10,13-dimethyl-2,3,4,7,8,9,10,11,12,13,14,15-dodecahydro-1H-cyclopenta[a]phenanthren-3-ol], in that order: 1 to 50 min, below 11 nM and above 50%.
With `C[C@]12CC[C@H](O)C[C@@H]1CC[C@@H]1[C@@H]2CC[C@]2(C)C(n3ccnn3)=CC[C@@H]12` [Compound 451, (3S,5S,8R,9S,10S,13S,14S)-10,13-dimethyl-17-(1H-1,2,3-triazol-1-yl)-2,3,4,5,6,7,8,9,10,11,12,13,14,15-tetradecahydro-1H-cyclopenta[a]phenanthren-3-ol], the inhibition at 0.01 µM in series [3] (setting [10]) was above 80%. Also, the IC50 in series [2] (setting [8]) was below 11 nM. In addition, the inhibition at 0.001 µM in series [4] (setting [9]) is above 50%.
